Experimental data published in ChEMBL document CHEMBL1124842, “Cyclohexane diester analogues of phorbol ester as potential activators of protein kinase C” (J Med Chem, 1990).

Experiment: Inhibition of [3H]PDBu binding to murine brain PKC (protein kinase C)
Parameters: species or system Mus musculus
Compound CCCCCCCC(=O)OC1CC[C@H](/C=C/CCO)CC1OC(=O)CCCCCCC (some centres undefined) has an IC50 greater than 1000 µM.
In the case of O=C(OC1CC[C@H](CO)CC1OC(=O)c1ccccc1)c1ccccc1 (some centres undefined), the IC50 is reported as greater than 1000 µM.
For CCCCCCCC(=O)OC[C@H](CO)OC(=O)CCCCCCC, the IC50 was 5 µM.
CCCCCCCC(=O)OC1CC[C@H](CO)CC1OC(=O)CCCCCCC (stereo in doubt; 20b) showed an IC50 of 1000 µM.
Compound CCCCCCCCCCCCCC(=O)O[C@@H]1[C@@H](C)[C@@]2(O)[C@@H](C=C(CO)C[C@]3(O)C(=O)C(C)=C[C@@H]23)[C@@H]2C(C)(C)[C@]12OC(C)=O [PHORBOL MYRISTATE ACETATE] has an IC50 of 0.01 µM.
With O=C(OC1CC[C@H](/C=C/CCO)CC1OC(=O)c1ccccc1)c1ccccc1 (some centres undefined) the IC50 was greater than 1000 µM.
In the case of CCCCCCCC(=O)OC1CC[C@H](CO)CC1OC(=O)CCCCCCC (stereo in doubt; 20a), the IC50 is reported as greater than 1000 µM.
Work on O=C(OC1CC[C@H](/C=C/CO)CC1OC(=O)c1ccccc1)c1ccccc1 (some centres undefined) yielded an IC50 greater than 1000 µM.
With CCCCCCCC(=O)OC1CC[C@H](/C=C/CO)CC1OC(=O)CCCCCCC (some centres undefined) the IC50 was greater than 1000 µM.
